Measurements: ChEMBL document CHEMBL4340550, “Structure based designing of triazolopyrimidone-based reversible inhibitors for kinases involved in NSCLC” (Bioorg Med Chem Lett, 2019)

How the values were obtained:
NCI-H460 [1] = assay: Antiproliferative activity against human H460 cells assessed as reduction in cell viability after 24 hrs by MTT assay; type: functional, cell-based; conditions: NCI-H460, 24 h
A-431 [2] = assay: Antiproliferative activity against human A431 cells assessed as reduction in cell viability after 24 hrs by MTT assay; type: functional, cell-based; conditions: A-431, 24 h
[3] = target: Hepatocyte growth factor receptor (Homo sapiens, UniProt P08581); assay: Inhibition of human recombinant His-tagged cMET expressed in baculovirus expression system reduction in phosphorylation using tyrosine 6 peptide as substrate after 60 mins FRET based Z'-LYTE assay
[4] = target: Epidermal growth factor receptor (Homo sapiens, UniProt P00533, L858R); assay: Inhibition of human recombinant GST-tagged EGFR L858R mutant expressed in baculovirus expression system reduction in phosphorylation using tyrosine 4 peptide as substrate after 60 mins FRET based Z'-LYTE assay
[5] = target: Epidermal growth factor receptor (Homo sapiens, UniProt P00533, L858R/T790M); assay: Inhibition of human recombinant GST-tagged EGFR L858R/T790M mutant expressed in baculovirus expression system reduction in phosphorylation using tyrosine 4 peptide as substrate after 60 mins FRET based Z'-LYTE assay
A549 [6] = assay: cells; conditions: Homo sapiens, A549, 24 h
Description: Antiproliferative activity against human A549 cells assessed as reduction in cell viability after 24 hrs by MTT assay

NCI-H460 [7] = assay: Antiproliferative activity against human H460 cells assessed as cell viability at 40 uM after 48 hrs by MTT assay relative to control; type: functional; conditions: NCI-H460, 48 h, read-out: Activity
NCI-H460 [8] = assay: Antiproliferative activity against human H460 cells assessed as cell viability at 30 uM after 48 hrs by MTT assay relative to control; type: functional; conditions: NCI-H460, 48 h, read-out: Activity
NCI-H460 [9] = assay: Antiproliferative activity against human H460 cells assessed as cell viability at 20 uM after 48 hrs by MTT assay relative to control; type: functional; conditions: NCI-H460, 48 h, read-out: Activity
NCI-H460 [10] = assay: Antiproliferative activity against human H460 cells assessed as cell viability at 10 uM after 48 hrs by MTT assay relative to control; type: functional; conditions: NCI-H460, 48 h, read-out: Activity
A549 [11] = assay: Antiproliferative activity against human A549 cells assessed as cell viability at 40 uM after 48 hrs by MTT assay relative to control; type: functional; conditions: A549, 48 h, read-out: Activity
A549 [12] = assay: Antiproliferative activity against human A549 cells assessed as cell viability at 30 uM after 48 hrs by MTT assay relative to control; type: functional; conditions: A549, 48 h, read-out: Activity
A549 [13] = assay: Antiproliferative activity against human A549 cells assessed as cell viability at 20 uM after 48 hrs by MTT assay relative to control; type: functional; conditions: A549, 48 h, read-out: Activity
A549 [14] = assay: Antiproliferative activity against human A549 cells assessed as cell viability at 10 uM after 48 hrs by MTT assay relative to control; type: functional; conditions: A549, 48 h, read-out: Activity
A-431 [15] = assay: Antiproliferative activity against human A431 cells assessed as cell viability at 40 uM after 48 hrs by MTT assay relative to control; type: functional; conditions: A-431, 48 h, read-out: Activity
A-431 [16] = assay: Antiproliferative activity against human A431 cells assessed as cell viability at 30 uM after 48 hrs by MTT assay relative to control; type: functional; conditions: A-431, 48 h, read-out: Activity
A-431 [17] = assay: Antiproliferative activity against human A431 cells assessed as cell viability at 20 uM after 48 hrs by MTT assay relative to control; type: functional; conditions: A-431, 48 h, read-out: Activity
A-431 [18] = assay: Antiproliferative activity against human A431 cells assessed as cell viability at 10 uM after 48 hrs by MTT assay relative to control; type: functional; conditions: A-431, 48 h, read-out: Activity

Chain of Epidermal growth factor receptor (Homo sapiens, UniProt P00533, L858R/T790M) (P00533 25-1210 T790M/L858R limits assumed): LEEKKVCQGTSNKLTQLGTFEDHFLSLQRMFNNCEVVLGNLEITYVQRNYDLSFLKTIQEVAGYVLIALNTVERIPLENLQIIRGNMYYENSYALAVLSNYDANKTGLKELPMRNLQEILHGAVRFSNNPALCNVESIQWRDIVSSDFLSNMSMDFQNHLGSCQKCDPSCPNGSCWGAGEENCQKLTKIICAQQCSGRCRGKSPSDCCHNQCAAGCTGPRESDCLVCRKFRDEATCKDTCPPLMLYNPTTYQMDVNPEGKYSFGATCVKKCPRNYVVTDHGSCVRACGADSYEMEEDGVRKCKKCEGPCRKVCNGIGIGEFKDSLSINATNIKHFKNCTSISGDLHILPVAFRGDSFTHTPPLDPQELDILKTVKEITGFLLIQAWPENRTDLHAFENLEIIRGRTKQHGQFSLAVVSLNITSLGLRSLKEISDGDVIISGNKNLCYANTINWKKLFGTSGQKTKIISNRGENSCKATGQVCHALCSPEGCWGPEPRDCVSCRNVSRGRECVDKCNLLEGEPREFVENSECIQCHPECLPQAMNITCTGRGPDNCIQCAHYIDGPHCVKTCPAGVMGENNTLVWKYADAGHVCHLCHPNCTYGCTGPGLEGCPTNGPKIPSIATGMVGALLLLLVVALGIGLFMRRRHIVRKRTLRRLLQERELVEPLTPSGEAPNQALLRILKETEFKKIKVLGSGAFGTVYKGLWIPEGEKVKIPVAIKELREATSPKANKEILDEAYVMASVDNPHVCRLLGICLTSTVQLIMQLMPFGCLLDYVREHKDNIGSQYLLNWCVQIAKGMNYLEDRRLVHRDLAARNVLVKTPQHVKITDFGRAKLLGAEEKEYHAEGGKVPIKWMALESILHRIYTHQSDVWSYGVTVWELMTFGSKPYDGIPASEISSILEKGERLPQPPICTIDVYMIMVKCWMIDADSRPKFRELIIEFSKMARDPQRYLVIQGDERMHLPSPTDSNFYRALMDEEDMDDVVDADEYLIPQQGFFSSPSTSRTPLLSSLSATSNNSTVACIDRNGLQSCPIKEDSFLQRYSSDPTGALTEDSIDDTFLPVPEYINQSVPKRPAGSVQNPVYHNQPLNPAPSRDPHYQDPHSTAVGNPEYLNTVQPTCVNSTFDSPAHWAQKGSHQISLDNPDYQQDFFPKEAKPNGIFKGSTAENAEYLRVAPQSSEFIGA
Chain of Epidermal growth factor receptor (Homo sapiens, UniProt P00533, L858R) (P00533 25-1210 L858R limits assumed): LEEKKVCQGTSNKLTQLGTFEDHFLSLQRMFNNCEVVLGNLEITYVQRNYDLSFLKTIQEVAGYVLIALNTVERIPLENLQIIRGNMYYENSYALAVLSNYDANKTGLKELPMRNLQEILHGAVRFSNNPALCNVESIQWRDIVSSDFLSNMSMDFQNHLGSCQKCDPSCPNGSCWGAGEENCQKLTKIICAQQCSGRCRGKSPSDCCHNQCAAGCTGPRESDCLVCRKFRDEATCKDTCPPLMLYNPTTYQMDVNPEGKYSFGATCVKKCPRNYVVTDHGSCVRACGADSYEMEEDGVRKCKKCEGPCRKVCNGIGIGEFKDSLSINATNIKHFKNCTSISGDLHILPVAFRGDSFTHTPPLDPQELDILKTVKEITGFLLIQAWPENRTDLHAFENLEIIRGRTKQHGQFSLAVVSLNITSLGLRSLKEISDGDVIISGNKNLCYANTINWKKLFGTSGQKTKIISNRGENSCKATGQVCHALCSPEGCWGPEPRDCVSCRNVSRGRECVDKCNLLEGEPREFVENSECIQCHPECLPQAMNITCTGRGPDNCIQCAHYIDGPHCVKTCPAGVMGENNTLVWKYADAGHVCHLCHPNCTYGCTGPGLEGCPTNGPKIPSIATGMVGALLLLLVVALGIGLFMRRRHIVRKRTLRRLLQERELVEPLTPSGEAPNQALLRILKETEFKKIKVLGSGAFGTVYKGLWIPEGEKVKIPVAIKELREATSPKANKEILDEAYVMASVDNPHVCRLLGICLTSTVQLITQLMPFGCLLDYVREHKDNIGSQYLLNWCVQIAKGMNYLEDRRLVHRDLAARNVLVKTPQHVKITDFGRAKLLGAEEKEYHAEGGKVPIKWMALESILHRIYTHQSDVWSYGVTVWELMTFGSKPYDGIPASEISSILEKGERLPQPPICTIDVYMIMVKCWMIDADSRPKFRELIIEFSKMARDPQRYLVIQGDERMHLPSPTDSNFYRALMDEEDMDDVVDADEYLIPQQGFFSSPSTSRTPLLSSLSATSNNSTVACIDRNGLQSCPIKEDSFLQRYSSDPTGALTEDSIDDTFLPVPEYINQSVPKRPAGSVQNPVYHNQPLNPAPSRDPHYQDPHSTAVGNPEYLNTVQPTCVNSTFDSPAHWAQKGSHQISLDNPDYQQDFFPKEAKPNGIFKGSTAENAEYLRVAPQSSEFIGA
Chain of Hepatocyte growth factor receptor (P08581 whole entry): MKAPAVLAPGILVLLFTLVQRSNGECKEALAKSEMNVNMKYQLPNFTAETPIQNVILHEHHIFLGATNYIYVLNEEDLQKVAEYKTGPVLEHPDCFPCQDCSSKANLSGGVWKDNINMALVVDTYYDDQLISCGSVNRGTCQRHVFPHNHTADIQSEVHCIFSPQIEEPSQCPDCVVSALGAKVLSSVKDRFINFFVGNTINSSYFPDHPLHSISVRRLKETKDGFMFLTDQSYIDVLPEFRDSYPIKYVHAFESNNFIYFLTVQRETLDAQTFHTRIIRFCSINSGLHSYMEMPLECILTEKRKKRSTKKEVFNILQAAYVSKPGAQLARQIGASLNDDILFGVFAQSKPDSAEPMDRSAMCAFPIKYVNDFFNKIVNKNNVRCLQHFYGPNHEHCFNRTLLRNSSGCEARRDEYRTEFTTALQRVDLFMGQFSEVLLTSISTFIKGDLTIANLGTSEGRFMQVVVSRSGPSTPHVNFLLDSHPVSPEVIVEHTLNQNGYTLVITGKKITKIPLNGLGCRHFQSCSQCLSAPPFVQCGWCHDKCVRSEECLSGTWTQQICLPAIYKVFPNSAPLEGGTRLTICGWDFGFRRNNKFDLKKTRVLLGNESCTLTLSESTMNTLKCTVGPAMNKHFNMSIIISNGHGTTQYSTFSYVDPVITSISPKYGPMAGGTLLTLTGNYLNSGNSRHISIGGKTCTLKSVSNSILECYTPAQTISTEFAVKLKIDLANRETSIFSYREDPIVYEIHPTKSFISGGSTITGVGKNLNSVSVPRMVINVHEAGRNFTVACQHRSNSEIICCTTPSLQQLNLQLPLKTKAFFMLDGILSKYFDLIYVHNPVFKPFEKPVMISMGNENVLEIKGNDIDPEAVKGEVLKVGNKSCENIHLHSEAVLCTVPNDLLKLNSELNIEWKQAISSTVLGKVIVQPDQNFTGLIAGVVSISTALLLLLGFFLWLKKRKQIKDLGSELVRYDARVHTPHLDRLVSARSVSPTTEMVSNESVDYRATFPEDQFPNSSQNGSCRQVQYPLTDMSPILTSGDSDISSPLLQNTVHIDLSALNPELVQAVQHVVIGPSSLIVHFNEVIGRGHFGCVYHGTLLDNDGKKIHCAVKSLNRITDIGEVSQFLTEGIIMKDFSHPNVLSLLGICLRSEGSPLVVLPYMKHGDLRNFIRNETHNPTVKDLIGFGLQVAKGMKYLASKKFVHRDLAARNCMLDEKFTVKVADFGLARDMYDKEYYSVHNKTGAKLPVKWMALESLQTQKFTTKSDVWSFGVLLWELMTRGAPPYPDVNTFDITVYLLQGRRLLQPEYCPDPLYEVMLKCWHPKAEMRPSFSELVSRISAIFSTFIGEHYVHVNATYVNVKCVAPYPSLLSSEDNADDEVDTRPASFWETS

Cc1cc(O)n2nc(SCc3cccc(Cl)c3)nc2n1
IC50 (NCI-H460 [1]): > 80000 nM | IC50 (A-431 [2]): > 40000 nM | IC50 [3]: 92 nM | IC50 [4]: 131 nM | IC50 [5]: 59 nM | IC50 (A549 [6]): > 80000 nM

Cc1cc(=O)n2nc(SCc3ccc(Cl)cc3)nc2[nH]1
IC50 (NCI-H460 [1]): 56500 nM | IC50 (A-431 [2]): 32500 nM | IC50 [3]: 113 nM | IC50 [4]: 54 nM | IC50 [5]: 182 nM | IC50 (A549 [6]): 61400 nM

Cc1cc(=O)n2nc(SCc3cccc(C(F)(F)F)c3)nc2[nH]1
IC50 (NCI-H460 [1]): 65800 nM | IC50 (A-431 [2]): 21800 nM | IC50 [3]: 94 nM | IC50 [4]: 81 nM | IC50 [5]: 84 nM | IC50 (A549 [6]): 72000 nM

Cc1cc(=O)n2nc(SCc3ccc(F)cc3)nc2[nH]1
IC50 (NCI-H460 [1]): > 80000 nM | IC50 (A-431 [2]): > 40000 nM | IC50 [3]: 203 nM | IC50 [4]: 52 nM | IC50 [5]: 56 nM | IC50 (A549 [6]): > 80000 nM

Cc1cc(=O)n2nc(SCc3ccc([N+](=O)[O-])cc3)nc2[nH]1
IC50 (NCI-H460 [1]): > 80000 nM | IC50 (A-431 [2]): > 40000 nM | IC50 [3]: 104 nM | IC50 [4]: 107 nM | IC50 [5]: 76 nM | IC50 (A549 [6]): > 80000 nM

Cc1cc(=O)n2nc(SCc3ccc(C(C)C)cc3)nc2[nH]1
viability at 40 µM (NCI-H460 [7]): 41.8% | viability at 30 µM (NCI-H460 [8]): 56% | viability at 20 µM (NCI-H460 [9]): 71.6% | viability at 10 µM (NCI-H460 [10]): 86.7% | viability at 40 µM (A549 [11]): 43.4% | viability at 30 µM (A549 [12]): 65.3% | viability at 20 µM (A549 [13]): 79.6% | viability at 10 µM (A549 [14]): 89.7% | viability at 40 µM (A-431 [15]): 17.7% | viability at 30 µM (A-431 [16]): 38.8% | viability at 20 µM (A-431 [17]): 50.7% | viability at 10 µM (A-431 [18]): 71.7% | IC50 (NCI-H460 [1]): 31800 nM | IC50 (A-431 [2]): 17300 nM | IC50 [3]: 50 nM | IC50 [4]: 80 nM | IC50 [5]: 62 nM | IC50 (A549 [6]): 35200 nM

Cc1ccc(CSc2nc3[nH]c(C)cc(=O)n3n2)cc1
viability at 40 µM (A-431 [15]): 32.5% | viability at 30 µM (A-431 [16]): 41.7% | viability at 20 µM (A-431 [17]): 62.5% | viability at 10 µM (A-431 [18]): 75.8% | IC50 (NCI-H460 [1]): 49900 nM | IC50 (A-431 [2]): 15800 nM | IC50 [3]: 79 nM | IC50 [4]: 311 nM | IC50 [5]: 168 nM | IC50 (A549 [6]): 50100 nM

Cc1cc(=O)n2nc(SCc3cccc([N+](=O)[O-])c3)nc2[nH]1
IC50 (NCI-H460 [1]): > 80000 nM | IC50 (A-431 [2]): > 40000 nM | IC50 [3]: 89 nM | IC50 [4]: 157 nM | IC50 [5]: 77 nM | IC50 (A549 [6]): > 80000 nM

Cc1cc(=O)n2nc(SCc3ccc(C(C)(C)C)cc3)nc2[nH]1
IC50 (NCI-H460 [1]): 59000 nM | IC50 (A-431 [2]): 24400 nM | IC50 [3]: 65 nM | IC50 (A549 [6]): 60500 nM

Cc1cc(=O)n2nc(SCc3ccc(Cl)cc3Cl)nc2[nH]1
viability at 40 µM (NCI-H460 [7]): 34.9% | viability at 30 µM (NCI-H460 [8]): 51% | viability at 20 µM (NCI-H460 [9]): 65.7% | viability at 10 µM (NCI-H460 [10]): 83.5% | viability at 40 µM (A549 [11]): 46.8% | viability at 30 µM (A549 [12]): 61.2% | viability at 20 µM (A549 [13]): 77% | viability at 10 µM (A549 [14]): 88.3% | IC50 (NCI-H460 [1]): 27200 nM | IC50 (A-431 [2]): 18200 nM | IC50 [3]: 42 nM | IC50 [4]: 141 nM | IC50 [5]: 141 nM | IC50 (A549 [6]): 34900 nM
